For experiment [1], the system named is newly diagnosed GBM patients. The settings on record: surgical resection, radiotherapy, and chemotherapy with temozolomide, ref [1]-[3]; cited from earlier work. An excerpt:
Glioblastoma (GBM) is a highly malignant and lethal cancer of the central nervous system. The current multimodal therapy for newly diagnosed GBM patients includes surgical resection, radiotherapy, and chemotherapy with temozolomide (TMZ), conferring a median survival of only 14.6 months, with recent results from phase 3 clinical trials showing an extension up to 20 months, although using more stringent inclusion criteria that limit generalizability.

Another experiment has as its system VTC-034 GSCs. Kind of experiment: Caspase 3/7 activity, VTC-034 GSCs. It counts as cell-based, human. The settings on record: VTC-034 adherent GSCs, 10, 50 or 100 μM, 48 h, Caspase-Glo 3/7. How it is done: (§1) Cells were plated in 96-well plates (2000–5000 cells per well) and treated the following day with TMZ (10, 50, or 100 μM), antennapedia, JM2-scrambled, or JM2 (10, 50, or 100 μM). After 4 days, cell viability was monitored following addition of MTS reagent (Promega) according to manufacturer’s instructions. The absorbance at 490 nm was measured using a SpectraMax i3 or iD3 microplate reader (Molecular Devices). For the caspase 3/7 activity assay, cells were plated in 96-well plates (2000 cells per well) and treated with TMZ or peptides as described above. The activity of caspase 3/7 was measured after 48 h using the Caspase-Glo® 3/7 assay (Promega) following the manufacturer’s instructions. Fold change of caspase 3/7 activity was defined as the ratio of caspase 3/7 luminescence in treated cells compared to controls.

The subject of a further experiment is VTC-001 GSCs. Briefly: MTS viability, VTC-001 GSCs. It counts as cell-based, human. Conditions: VTC-001 adherent GSCs, TMZ 50 μM, 4 days. How it is done:
as §1

A further experiment deals with VTC-037 GSCs. Briefly: MTS viability, VTC-037 GSCs. It counts as cell-based, human. Conditions: VTC-037 adherent GSCs, TMZ 50 μM, 4 days. How it is done:
as §1

We go through 1 compound from PMC12084297, “Cytoplasmic connexin43-microtubule interactions promote glioblastoma stem-like cell maintenance and tumorigenicity” (Cell Death & Disease, 2025).

As to `Cn1nnc2c(C(N)=O)ncn2c1=O` [TMZ, temozolomide, reference compound], in experiment [1], the Median survival is recorded as 14.6 months. For the same compound, in the experiment on VTC-034 GSCs, the “Apoptosis induction (caspase 3/7 activity)” value is listed as “inefficient in inducing apoptosis”. In addition, the “GSC viability with TMZ alone (MTS)” value with VTC-001 GSCs and with VTC-037 GSCs was “resistant to TMZ treatment” throughout.
